Data as given in patent publication US5059442A, “Primary amide esters as low calorie fat mimetics” (Nabisco Brands, Inc., priority 1989, dated 1991).

Experiments:
[1] = rat, in vivo; cited from earlier work
[2] = in vitro digestibility: hydrolysis with pancreatic lipase; type: in vitro ADME, porcine; settings: pig, pH 7.1 buffer, 37° C., same conditions as triolein control
Description: (§1) This example outlines the procedure for estimating the in vitro digestibility of the synthetic fat mimetics of this invention.
(§2) 1. Buffer: A pH 7.1 phosphate buffer is prepared by dissolving 6.8 g KH2 PO4 in 1 L of millipore filtered water (to yield 0.05 M phosphate). Fifty mg Ca(NO3)2 is added and 5.0 g cholic acid (Na salt, an ox bile isolate from Sigma) to give 0.3 mM Ca++ and 0.5 % cholic acid in 0.05 M phosphate. The pH is adjusted to approximately 7.1 with solid NaOH. Several drops of Baker "Resi-analyzed" toluene are added to prevent bacterial growth during storage at 3°-5° C. 2. Lipase: About 15 mg/mL commercial porcine pancreatic lipase from U.S. Biochemical Corporation is dissolved in buffer.
(§3) 3. Substrates and Standards: A 1.0 mL volumetric flask is charged with an amount of lipid substrate calculated to give a concentration of 200 nanomoles per microliter in Baker "Resianalyzed" toluene. (The proper concentration may be approximated by doubling the molecular weight of the lipid in question, dividing by 10, and diluting to the mark; this yields about 200 nanomoles per microliter.) This preparation affords the substrate to be used in the hydrolysis reactions.
(§4) Fatty acids and glyceride standards from Nu Chek or Sigma are prepared for elution on TLC plates (prewashed with 1:1 chloroform/methanol) by diluting the substrate solution with 10:1 toluene (1 part substrate plus 9 parts toluene) in septum vials.
(§5) In a 25 mL Erlenmeyer, emulsify 20 mL buffer and 40 microliters of substrate using an ultrasonic disrupter at a microtip maximum setting for approximately 10 seconds. […] Place in a 37° C. water bath and stir vigorously. After temperature equilibration, add 40 microliters of enzyme solution and start timing. Remove 5.0 mL aliquots at convenient time intervals for analysis. To establish a standard curve for triolein, aliquots are taken at 10, 20, 30 and 40 minutes.
(§6) Add the aliquot to a 15 mL glass centrifuge tube containing a drop of concentrated HCl. Add approximately 3 mL of a 2:1 mixture of CHCl3 :CH3 OH and shake vigorously. Centrifuge at approximately 5000 rpm for 5 minutes and transfer the bottom layer with a Pasteur pipet to a 5 mL septum vial. Repeat the extraction step once and combine the two bottom layers. Evaporate the solvent in nitrogen gas. After about half of the solvent is removed, add an equivalent volume absolute ethanol and continue evaporation in a nitrogen stream until dryness is achieved. Samples may be warmed with a heat gun to facilitate drying.
(§7) When the samples are dry, add exactly 200 microliters of toluene containing 10% DMSO, cap tightly, and spot TLC plate with 2.0 microliters per channel. […]

[3] = in vivo animal feeding study for caloric availability; design: species or system male Sprague-Dawley rats; settings: rats, diet of 50% fort and 21% test compound, 14 days; from weight gain and corn oil base line correlation
Text: This example illustrates how the novel fat mimetics of this invention are screened for caloric availability by a carefully controlled in vivo animal feeding study.
An experimental relationship between total calories ingested and animal body weight gain is established by monitoring the body weight gain associated with consumption of a nutritionally balanced diet containing varying concentrations of a reference substance such as corn oil which has a known caloric availability. Correlations between total calories ingested and body weight gain are excellent (r=0.99).
Caloric availability of a test material is evaluated by substituting a specific weight of the test material for the reference substance and observing the body weight gain. The gain in body weight is equated to a total number of calories using the correlation previously established for the reference data. The estimated number of calories ingested are divided by the weight of test material to give the apparent calories per gram for the test material. Generally speaking, in these bioavailability studies, the degree of perianal pelt soiling correlates with reduced bioavailability.
The test animals are six-week-old male Sprague-Dawley rats obtained from the Portage, Michigan facility of the Charles River Laboratories, Inc. After acclimation for 15 days, the test duration is 14 days. […]

[4] = tested on: porcine pancreatic lipase; assay: in vitro digestibility: hydrolysis with pancreatic lipase; type: in vitro ADME; settings: pH 7.1 buffer, 37° C., in 10 minutes
Description: as §1, §2, §3, §4, §5, §6, §7

Compound | metabolised [2] | other results
corn oil |  | caloric availability of reference substance [1]: 9.0 kcal/gm
CCCCCCCC/C=C\CCCCCCCC(=O)NCC(COC(=O)CCCCCCC/C=C\CCCCCCCC)OC(=O)CCCCCCC/C=C\CCCCCCCC (stereo not drawn) [Example 2, 2,3-Bis(oleyoyloxy)propyl oleamide] | 50% | caloric availability (kcal/gram upon being metabolized) [3]: about 3.3 kcal/gram
CCCCCCCC/C=C\CCCCCCCC(=O)NC(COC(=O)CCCCCCC/C=C\CCCCCCCC)COC(=O)CCCCCCC/C=C\CCCCCCCC [Example 3, 1,3-Bis(oleoyloxy)propyl 2-oleamide] | 50% | 
CCCCCCCC/C=C\CCCCCCCC(=O)NC(C)(COC(=O)CCCCCCC/C=C\CCCCCCCC)COC(=O)CCCCCCC/C=C\CCCCCCCC [Example 4, 2-Methyl-1,3-bis(oleoyloxy)propyl 2-oleamide] | 10% | 
CCCCCCCC/C=C\CCCCCCCC(=O)OCC(COC(=O)CCCCCCC/C=C\CCCCCCCC)OC(=O)CCCCCCC/C=C\CCCCCCCC [triolein] |  | hydrolysis of triglyceride control [4]: substantially hydrolyzed
